Laboratory results from US9868697B2, “Phytosphingosine derivatives, and composition comprising same for preventing and treating inflammatory skin diseases, autoimmune diseases, and hyperkeratosis diseases” (THE CATHOLIC UNIVERSITY OF KOREA INDUSTRY—ACADEMIC …, priority 2011, dated 2018).
“Also recorded” adds a separate entry of the source.

Legend:
NF-κB [1] = assay: Nuclear translocation of NF-κB, immunostaining, TPA-stimulated skin keratinocytes; format: cell-based, human; settings: TPA stimulation, FIG. 1B
Description: (§1) Herein, in order to verify the effect of novel synthetic YG-II-6 compounds and their lead compound, phytosphingosine, on phosphorylation and degradation of IκBα, which is a protein that inhibits the activity of NF-κB by forming a complex with NF-κB, skin keratinocytes were pre-treated with respective compounds for 1 hour and then stimulated with 400 nM TPA for 15 minutes and 30 minutes, respectively. In order to verify the phosphorylation of NF-κB and the expression level of NF-κB in the cytoplasm and nucleus, skin keratinocytes were stimulated for 15 minutes and 1 hour, respectively. The results were confirmed by western blot analysis. In addition, the nuclear translocation of NF-κB was confirmed through reaction with antibodies, fluorescent labeling, and direct observation by microscopy. In order to verify the activity of the respective compounds at the transcription stage, cells were transfected with plasmids labeled with NF-κB luciferase reporter, and the luciferase activity was measured by the luciferase assay. In addition, the phosphorylation of IκBα and NF-κB was measured in the PTA-stimulated mouse skin.

[2] = system: human-derived keratinocytes and primary culture skin keratinocytes; assay: Apoptosis in keratinocytes, FITC staining and TUNEL assay; format: cell-based; settings: 24 hours, FIGS. 7C to 7E
Description: (§2) Therefore, in order to verify the degree of the cytotoxicity of the YG-II-6 compounds, their cytotoxicity on human-derived keratinocytes was confirmed by using the WST-1 reagent. In order to verify the effects of the compounds on the expression of proteins associated with apoptosis, the keratinocytes were treated with corresponding concentrations of the respective compound samples and stimulated with TPA for 24 hours, and the expression levels of proteins were confirmed by western blot assay. In addition, human-derived keratinocytes and primary culture skin keratinocytes were treated with the compounds, and after 24 hours, subjected to FITC staining and TUNEL assay, and the skin tissues isolated from TPA-induced mice was subjected to FITC staining

ERK1/2, p38, and JNK = assay: MAP kinase phosphorylation in TPA-stimulated skin keratinocytes, western blot; format: cell-based, human; settings: 400 nM TPA for 15 minutes, FIG. 4
Description: In order to verify the effects of the respective compounds on MAP kinase, skin keratinocytes were treated with the respective compounds for 1 hour, and then stimulated with 400 nM TPA for 15 minutes. The level of phosphorylation was confirmed by western blot assay.

[3] = system: human-derived keratinocytes; assay: Cytotoxicity on human-derived keratinocytes, WST-1 reagent; format: cell-based; settings: WST-1, FIG. 7A
Description: as §2

NF-κB [4] = assay: Phosphorylation of IκBα and NF-κB in TPA-stimulated skin keratinocytes, western blot; format: cell-based, human; settings: for inhibitory effect on the NF-κB activation: overall conclusion of the NF-κB tests
Description: as §1

NF-κB [5] = assay: NF-κB luciferase reporter assay, TPA stimulation; format: cell-based, human; settings: FIG. 1C
Description: as §1

mouse skin tissues = assay: Apoptosis in skin tissues of TPA-induced mice, FITC staining; format: in vivo; settings: FIGS. 7C to 7E
Description: as §2

Compound	nuclear translocation of NF-κB (NF-κB [1])	apoptosis in the TPA-stimulated cells [2]	phosphorylation of ERK1/2, p38, and JNK (ERK1/2, p38, and JNK)	concentration at which cytotoxicity was shown [3] [µM]	inhibitory effect on the NF-κB activation (NF-κB [4])	phosphorylation of IκBα and NF-κB increased by TPA stimulation (NF-κB [4]; skin keratinocytes, 1 hour pre-treatment, 400 nM TPA, FIG. 1A)	NF-κB luciferase activity increased by TPA stimulation (NF-κB [5])	apoptosis in the mouse skin tissues (mouse skin tissues)
CCCCCCCCCCCCCC[C@@H](O)[C@@H](O)[C@@H](N)CO [phytosphingosine]	inhibited the nuclear translocation of NF-κB	induced apoptosis	relatively weaker inhibitory activity than the YG-II-6 compounds; also recorded: no or little inhibitory effect	5 to 10	inhibited the activation of NF-κB	inhibited the phosphorylation of IκBα and NF-κB	inhibited the luciferase activity	induced apoptosis
CCCCCCCCCCCCCC[C@@H](O)[C@@H](O)[C@H](CO)NC(=O)/C=C/C(=O)O [fYG-II-6, (E)-4-oxo-4-(((2S,3S,4R)-1,3,4-trihydroxyoctadecan-2-yl)amino)but-2-enoic acid]	–	–	–	–	relatively greater inhibitory effect than mYG-II-6	–	–	–
